One test deals with diabetes model rat. Put plainly: inhibitory effect on the amount of albumin excreted in urine in diabetes model rat. The class given is in vivo, SDT Fatty rats. Conditions: urine collected for 24 hours, urine albumin/urine creatinine ratio. How it is done: Male SDT Fatty rats aged 6 weeks (CLEA Japan) were purchased and preliminarily bred for 1 week or more. Experiments were performed at 8 to 16 weeks of age. The animals were fed ad libitum with solid feed CRF-1 (Oriental Yeast) and watered ad libitum.
Animals were housed in metabolic cages 2 days before test substance administration, and urine was collected for 24 hours. On the day before administration of the test substance, urine albumin and urine creatinine were measured, and grouping was performed by a stratification randomization method based on the urine albumin/urine creatinine ratio (ACR) and the average value of body weights for each group.
The compounds (test substances) of Examples 9-5, 10, 11, 12, 25-7 and 32, and water for injection (Otsuka Pharmaceutical) as a vehicle were orally administered once at 5 mL/kg. The administration dose is described in Table 3.
For evaluation of the amount of albumin excreted in urine of each animal, a urine albumin/urine creatinine ratio (ACR) was measured. After administration of the test substance, the animals were housed in metabolic cages, and urine was collected for 24 hours. Each concentration of urine albumin and urine creatinine was measured using an automatic analyzer 7180 (Hitachi High-Tech), and ACR was calculated by dividing the urine albumin concentration by the urine creatinine concentration.

Another test has as its target T1, EP1 (Homo sapiens, UniProt P34995).
T1 construct: expressed in transfected cells; host or cells: CHO (EP1-CHO)
T1 sequence (P34995 1-402): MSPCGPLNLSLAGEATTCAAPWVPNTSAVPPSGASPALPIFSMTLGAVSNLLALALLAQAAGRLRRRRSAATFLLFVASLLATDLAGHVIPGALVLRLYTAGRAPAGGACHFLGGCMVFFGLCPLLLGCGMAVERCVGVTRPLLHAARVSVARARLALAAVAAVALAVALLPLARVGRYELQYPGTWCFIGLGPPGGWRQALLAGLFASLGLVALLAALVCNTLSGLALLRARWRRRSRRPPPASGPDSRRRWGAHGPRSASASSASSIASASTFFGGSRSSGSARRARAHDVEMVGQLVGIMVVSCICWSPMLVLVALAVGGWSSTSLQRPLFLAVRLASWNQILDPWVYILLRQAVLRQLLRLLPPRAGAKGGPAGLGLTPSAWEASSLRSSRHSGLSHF
Nature of the test: agonist activity on human EP1 receptor (intracellular calcium concentration, EP1-CHO cells). The test is classed as cell-based. How it is done:
Using CHO cells (EP1-CHO, EP2-CHO, EP3-Chem1, EP4-CHO and IP-CHO) on which various human prostanoid receptors were forcibly expressed, the agonist activity of the test compound on the various prostanoid receptors was examined using the intracellular calcium concentration for EP1 and EP3, and the intracellular cyclic AMP (hereinafter, abbreviated as cAMP) production amount for EP2, EP4 and IP as indices.
The test compound and control substances (PGE2 and iloprost) were dissolved in dimethyl sulfoxide (DMSO) to prepare a 10 mmol/L solution. The prepared 10 mmol/L solution was thawed at the time of use, serially diluted using DMSO, and diluted with a buffer solution 1 for measurement (Hank's balanced salt solution (Thermofischer scientific) containing 1 w/v% human serum albumin (Sigma), 2 µmol/L indomethacin (Sigma), 2.5 mmol/L probenecid, and 10 mmol/L HEPES-NaOH (pH7.4)) or a buffer solution 2 for measurement (D-PBS (Nacalai Tesque) containing 0.1 w/v% human serum albumin, 2 µmol/L diclofenac (Sigma), and 1 mmol/L 3-isobutyl-1-methylxanthine (Sigma)) to perform experiments.
The intracellular calcium concentration was measured using Calcium 6 Assay Kit (Molecular Devices). On the day before the measurement, EP1-CHO and EP3-Chem 1 were obtained by thawing the frozen cells, suspended using Ham's F-12 medium (Thermofischer scientific) containing inactivated (56°C, 30 min) 9.8 vol% FBS (Thermofischer scientific) and penicillin-streptomycin (Nacalai Tesque), seeded into a 96 well UV plate to 1.0×10^5 cells per well, and static cultured at 37°C in the presence of 5%CO2. On the day of the measurement, the medium was removed, followed by addition of 120 µL of the Calcium indication solution dissolved in the buffer solution 1 for measurement and incubation at room temperature under light-shielding for about 1 hour. After 1 hour incubation, the 96 well UV plates were set in a fluorescence spectrophotometer (FDSS-7000, Hamamatsu Photonics) to measure the intracellular calcium concentration. Thirty microliters of the buffer solution 1 for measurement containing various concentrations of agonists were added, and the mixture was reacted. The intracellular calcium concentration was measured by irradiating the cells with 480 nm excitation light and measuring the fluorescence intensity at 540 nm.

Test [1] concerns Alport syndrome model mice. Put plainly: in vivo drug efficacy in Alport syndrome model mice. On the set-up: species or system COL4A5 homozygote knockout mice. Conditions: Control-4 group: irbesartan (50 mg/kg) orally once a day for 17 weeks; 16 weeks after the start of administration. On the procedure: The in vivo drug efficacy of the present compound on Alport syndrome was evaluated using COL4A5 (causative gene of Alport syndrome) knockout mice.
Male wild-type mice and female COL4A5 hetero knockout mice were naturally crossed to obtain offspring. Genotypes of the offspring were confirmed and male COL4A5 homozygote knockout mice were obtained.
The obtained animals were fed ad libitum with CE-2 (CLEA Japan), and watered ad libitum.
The mice were divided into groups using a statistical analysis system EXSUS10.0 so that the body weight and the urine albumin/urine creatinine value at the time of 6 weeks of age were almost uniform in each group.
The test substance and water for injection (Otsuka Pharmaceutical) as a vehicle were orally administered at 10 mL/kg once a day for 17 weeks.
The Control-3 group was orally administered water for injection at 10 mL/kg once a day for 17 weeks. In the Control-4 group, water for injection and an administration solution of irbesartan which is a renin angiotensin system inhibitor were mixed in equal amounts at 5 mL/kg each, and orally administered once a day for 17 weeks.
The administration dose is described in Table 11.
Blood collection was performed by cutting the tail vein of the mice a little with a razor and using a hematocrit capillary. Blood was centrifuged to obtain plasma. Urine was collected for about 16 hours in a metabolic cage for mouse under conditions in which a solid feed and water can be freely taken. The obtained urine sample was centrifuged, and the supernatant was subjected to measurement. Urine albumin (U-ALB) and urine creatinine (U-CRE) concentrations were measured by an automatic analyzer Hitachi 7180 (Hitachi High-Tech), and the creatinine concentration in plasma was measured using LabAssay Creatinine (Fujifilm Wako Shibayagi).

As to `O=C(O)c1ccc2c(c1F)O[C@H]1C[C@@H](Cl)[C@H](/C=C/C(O)C3(c4ccccc4F)COC3)[C@H]1CC2` (stereo partly drawn) [Example 32, (1R,2R,3aS,10aR)-2-chloro-5-fluoro-1-{(1E,3ξ)-3-[3-(2-fluorophenyl)-3-oxetanyl]-3-hydroxy-1-propen-1-yl}-2,3,3a,9,10,10a-hexahydro-1H-benzo[b]cyclopenta[f]oxepine-6-carboxylic acid], the ACR mean with diabetes model rat (0.03 mg/kg orally once) amounted to 3391 µg/mg; in the test with diabetes model rat (0.1 mg/kg orally once) it was 3086.1 µg/mg. On EP1, the EC50 is more than 10 µM.

With `O=C(O)c1ccc2c(c1Cl)O[C@H]1CC[C@H](/C=C/C(O)C3(c4ccccc4F)CCC3)[C@H]1CC2` (stereo partly drawn) [Example 26-17, (1R,3aS,10aR)-5-chloro-1-{(1E,3ξ)-3-[1-(2-fluorophenyl)cyclobutyl]-3-hydroxy-1-propen-1-yl}-2,3,3a,9,10,10a-hexahydro-1H-benzo[b]cyclopenta[f]oxepine-6-carboxylic acid], the EC50 on EP1 was more than 10 µM.

As to `O=C(O)c1ccc2c(c1)O[C@H]1C[C@@H](O)[C@H](/C=C/C(O)C3(c4ccc(F)cc4)CCC3)[C@H]1CC2` (stereo partly drawn) [Example 7-13, (1R,2R,3aS,10aR)-1-{(1E,3ξ)-3-[1-(4-fluorophenyl)cyclobutyl]-3-hydroxy-1-propen-1-yl}-2-hydroxy-2,3,3a,9,10,10a-hexahydro-1H-benzo[b]cyclopenta[f]oxepine-6-carboxylic acid], the EC50 at EP1 stood at 6.3 µM.

Take `CCCCC1=NC2(CCCC2)C(=O)N1Cc1ccc(-c2ccccc2-c2nnn[nH]2)cc1` [Irbesartan, irbesartan, reference compound]: in test [1], the Plasma creatinine mean is given as 0.771 mg/dL and the “Urine Albumin/ Urine Creatinine Ratio mean” value is on record as 31414.47 mg/g.

For `Cc1c(C(=O)O)ccc2c1O[C@H]1CO[C@H](/C=C/C(O)C3(Oc4ccccc4)CCC3)[C@H]1CC2` (stereo partly drawn) [Example 41-2, (1R,3aR,10aR)-1-[(1E,3ξ)-3-hydroxy-3-(1-phenoxycyclobutyl)-1-propen-1-yl]-5-methyl-1,3,3a,9,10,10a-hexahydrofuro[3,4-b][1]benzoxepine-6-carboxylic acid], the EC50 on EP1 is more than 10 µM.

For the molecule `C=C(CCOC)C(O)/C=C/[C@H]1CC[C@@H]2Oc3c(ccc(C(=O)O)c3Cl)CC[C@@H]21` (stereo partly drawn) [Example 26-19, (1R,3aS,10aR)-5-chloro-1-[(1E,3ξ)-3-hydroxy-6-methoxy-4-methylene-1-hexen-1-yl]-2,3,3a,9,10,10a-hexahydro-1H-benzo[b]cyclopenta[f]oxepine-6-carboxylic acid], at EP1, the EC50 was more than 10 µM.

For `Cc1c(C(=O)O)ccc2c1O[C@H]1C[C@@H](O)[C@H](/C=C/C(O)C3(c4ccc(F)cc4)CCC3)[C@H]1CC2` (stereo partly drawn) [Example 9-5, (1R,2R,3aS,10aR)-1-{(1E,3ξ)-3-[1-(4-fluorophenyl)cyclobutyl]-3-hydroxy-1-propen-1-yl}-2-hydroxy-5-methyl-2,3,3a,9,10,10a-hexahydro-1H-benzo[b]cyclopenta[f]oxepine-6-carboxylic acid], the ACR mean was found to be 4691.4 µg/mg in the test on diabetes model rat (0.1 mg/kg orally once) and 4466.2 µg/mg in the test with diabetes model rat (0.3 mg/kg orally once). Moreover, on EP1, the EC50 was more than 10 µM.

On to `CCCC[C@H](C)C(O)/C=C/[C@H]1OC[C@@H]2Oc3c(ccc(C(=O)O)c3C)CC[C@@H]21` (stereo partly drawn) [Example 41, (1R,3aR,10aR)-1-[(1E,3ξ,4S)-3-hydroxy-4-methyl-1-octen-1-yl]-5-methyl-1,3,3a,9,10,10a-hexahydrofuro[3,4-b][1]benzoxepine-6-carboxylic acid], for which, on EP1, the EC50 was more than 10 µM.

One may read the EC50 as the concentration needed to bring the measured effect to its halfway point.

These data come from patent EP4682141A1, “TRICYCLIC COMPOUND” (ONO Pharmaceutical Co., Ltd., priority 2023, dated 2024).
